One compound from patent US20190343425A1, “TREATMENT OF A DISEASE OF THE GASTROINTESTINAL TRACT WITH A TNF INHIBITOR” (Progenity, Inc., priority 2016, published 2019) can be followed below.

The data set can be described thus: Tacrolimus tissue pharmacokinetics, oral versus intra-cecal ingestible device delivery. The data set is classed as in vivo, Yorkshire-Cross farm swine. Particulars: swine; intra-cecally (ingestible device) vs orally administered; FIG. 76. The method, then:
No further randomization procedure was employed.
Animals in Group 1 received an ingestible device containing 0.8 mL of vehicle solution (80% alcohol, 20% HCO-60). Animals in Group 2 received orally […] liquid formulation of tacrolimus at 4 mg/0.8 mL per animal (Prograf: 5 mg/mL). Animals in Group 3 received intra-cecally an ingestible device containing tacrolimus at 1 mg in 0.8 mL per ingestible device. Animals in Group 4 received intra-cecally an ingestible device containing tacrolimus at 2 mg in 0.8 mL per ingestible device. Animals in Group 5 received intra-cecally an ingestible device containing tacrolimus at 4 mg in 0.8 mL per ingestible device. To control for potential confounding effects of the surgery, all groups fast on Day −11 at least 24 hr before being subjected to anesthesia followed by surgical placements of a cecal port by a veterinary surgeon at Day −10. […]
For tissue necropsy, small intestine fluid and cecal fluid were collected separately from all the animals into two separate square plastic bottles, and stored at −20° C. The length and diameter of the cecum and the colon was measured from one animal in each group and recorded for reference. […] All samples were weighed, and the tissue sample weights were recorded. […] Around 3 grams of the total punched sample were collected into a pre-weighed 15-mL conical tube, and the tissue weight was recorded. […]

Structures are written as SMILES.

On to `C=CC[C@@H]1/C=C(\C)C[C@H](C)C[C@H](OC)[C@H]2O[C@@](O)(C(=O)C(=O)N3CCCC[C@H]3C(=O)O[C@H](/C(C)=C/[C@@H]3CC[C@@H](O)[C@H](OC)C3)[C@H](C)[C@@H](O)CC1=O)[C@H](C)C[C@@H]2OC` [tacrolimus], for which the “mean concentration of tacrolimus in the cecum tissue and the proximate colon tissue” value is listed as “higher”.
